“Also recorded” adds a separate entry of the source.
Legend:
[1] = test system: NOD/SCID/MPSVII mice; assay: huMSC transplantation with LLP2A-Ale in immunodeficient mice; type: in vivo, mouse
Description: Human MSCs (huMSCs) were obtained and injected together with LLP2A-Ale to immunodeficient mice, NOD/SCID/mucopolysaccharidosis type VII (MPSVII). This mouse strain lacked the β-glucuronidase (GUSB) enzyme. The donor cells could be easily detected using biochemical detection of β-glucuronidase (See Meyerrose, T. E., et al., Stem Cells, 2007. 25(1): p. 220-7; Meyerrose, T. E., et al., Stem Cells, 2008. 26(7): p. 1713-22). At three-month of age, the mice received a single intravenous (i.v.) injection of either vehicle (100 μl PBS/mouse), huMSCs (5×10^5/100 μl/PBS/mouse), huMSCs+LLP2A (5 nM/mouse) or huMSCs+LLP2A-Ale (500 ng/mouse; total compound weight 3.5 μg, with alendronate concentration of 500 ng/mouse). The alendronate dose we used for the study was approximately one-fifth of the therapeutic dose for the treatment of osteoporosis (See Colon-Emeric, C. S., JAMA, 2006, 296(24): p. 2968-9; Ma, Y. L., et al., Endocrinology, 2003. 144(5): p. 2008-15). […] HuMSC, as shown by GUSB+red stain, were only present at the trabecular bone surface in the LLP2A-Ale-treated group (lower panel). There was no demonstrable GUSB activity in the lung, liver, kidney and LVB that received PBS (top panels) or huMSCs (middle panel). Cancellous bone mass in the vertebral body was—more than 40% higher in the group treated with MSC+LLP2A-Ale (cancellous bone volume, BV/TV 13.9±2.2%) compared to PBS (BV/TV 9.4±1.7%), MSC (BV/TV 10.2±1.9%) or MSC+LLP2A (BV/TV 10.5±0.5%) controls three weeks after a single injection of huMSC and LLP2A-Ale.
In FIG. 8, Three-month-old MSPVII mice received a single intravenous injection of either of PBS, huMSC (5×10^5) or huMSC+LLP2A or LLP2A-Ale. The mice were sacrificed 24 hours later. Following sacrifice, small portions of organ including lumbar vertebral bodies (LVB) were harvested and frozen in Optimal Cutting Temperature embedding media. The sections were stained using naphthol-AS-BI-β-Dglucuronide (GUSB) as a substrate. Representative sections from lung, liver, kidney and lumbar vertebral (LVB) trabecular bone regions were presented. […] Isolated GUSB-positive cells were also observed within bone marrow of the LVB in […] group.
The NOD-SCID MPSVII strain was the result of extensive backcrossing of the mutant GUSB allele from the B6.C-H-2^bm1/ByBirgus^mps/+ mouse onto the NOD/LtSz-scid background. Animals were bred and maintained at the Stem Cell Department of the UC Davis Medical Center under approved animal care protocols. Affected animals were generated by breeding mice heterozygous for the MPSVII mutation. Homozygous GUSB-deficient pups were identified at birth by biochemical analysis of toe tissue.
Serum levels of the amino terminal propeptide of type 1 procollagen (P1NP), osteocalcin and C-terminal telopeptides of type I collagen (CTX-I) were measured using mouse sandwich ELISA kits from Biomedical Technologies (Stroughton, Mass.) or Immunodiagnostic System (Fountain Hills, Ariz.). The manufacturer's protocols were followed and all samples were assayed in duplicate. A standard curve was generated from each kit and the absolute concentrations were extrapolated from the standard curve. The coefficients of variations (CVs) for inter-assay and intra-assay measurements were less than 10% for all assays and are similar to the manufacturer's references (Yao, W., et al., Arthritis Rheum, 2008, 58(6): p. 1674-86; Yao, W., et al., Arthritis Rheum, 2008, 58(11): p. 3485-3497).
After fixation in 4% paraformaldehyde, the right distal femurs, mid-femurs and the 5th lumbar vertebral bodies were dehydrated in graded concentrations of ethanol and xylene and embedded un-decalcified in methyl methacrylate. The frontal sections (8 μm thick) were cut using a vertical bed microtome (Leica/Jung 2265) and affixed to slides coated with a 2% gelatin solution. Unstained 8-μm-thick sections were used for assessing fluorochrome labeling and dynamic changes in bone. […]

[2] = test system: 129SvJ mice; type: in vivo, mouse
[3] = test system: 10-week-old ovariectomized (OVX) mice; assay: Ovariectomized (OVX) mouse model; type: in vivo
Description: FIG. 21 depicts histomorphometric analyses of the 5th lumbar vertebral bodies after LLP2A-Ale treatment of 10-week-old ovariectomized (OVX) mice, showing increases in osteoblast numbers, activities and bone formation rate/bone surface (BFR/BS) post-treatment. Analyses included trabecular bone area (%), osteoblast surface (Ob/BS), mineralizing surface (MS/BS) activities and BFR/BS (P<0.05).
Representative fluorescent images from the trabecular bone at the 5th LVB (Top panel: white arrowheads illustrate osteoblasts; Bottom panel: yellow arrows illustrate double labeled trabecular bone surfaces).
FIG. 23 depicts histomorphometry analyses of the right mid-femurs included bone formation at the endosteal (Ec) or periosteal (Ps.) bone surfaces, and cortical bone thickness of 10-week-old ovariectomized (OVX) mice. […] Three-point bending was performed on left femurs to obtain maximum stress of the femurs.
Short yellow arrows illustrated double labeled endocortical bone surfaces. (a, p<0.05 versus Sham; b, P<0.05 vs. OVX+PBS, c, P<0.05 vs. OVX+LLP2A; d, P<0.05 vs. OVX+Ale. Data are represented as Mean±SD).

[4] = 5th lumbar vertebral body, three weeks, co-injected with huMSC
[5] = serum, three weeks, co-injected with huMSC
[6] = three weeks following huMSCs transplantation

With `Cc1ccccc1NC(=O)Nc1ccc(CC(=O)N[C@@H](CCCCNC(=O)/C=C/c2cccnc2)C(=O)N[C@@H](CCCC(=O)O)C(=O)NC2(C(=O)NCCOCCOCCNC(=O)CCC(=O)NCCOCCOCCNC(=O)CCC(=O)N[C@@H](CCCCNC(=O)[C@H](N)CSC3CC(=O)N(CC4CCC(C(=O)NCCCC(O)(P(=O)(O)O)P(=O)(O)O)CC4)C3=O)C(N)=O)CCCCC2)cc1` (stereo partly shown) [LLP2A-Ale, LLP2A-Alendronate] the “osteoblasts and osteocytes at cortical and trabecular bone regions in LVB” value ([1]; 3 weeks following co-injection with GFP-labeled huMSCs) was “increased”, the mineral apposition rate [1, 4] was “significant increases” and the osteoblast surface [1, 4] was “significant increases”. For the same compound, the “surface-based bone formation rate (BFR/BS)” value [1, 4] was “significant increases”, the “huMSCs (GUSB+) on/adjacent to bone surface” value ([1]; 24 hours after single i.v. injection of huMSCs with compound) was “greatly increased; also recorded: Significant amount; also recorded: seen accumulated in bone marrow, adjacent to both trabecular and periosteal bone surfaces” and the intra-cortical bone remodeling ([1]; mid-femur, three weeks, co-injected with huMSC) was “markedly increased”. The osteocalcin [1, 5] was “significant increases”, the “procollagen 1 N-terminal propeptide (P1NP)” value [1, 5] was “significant increases” and the “cancellous bone mass in the vertebral body, higher compared to controls” value ([1]; three weeks after single injection of huMSC and compound, vs PBS, MSC, MSC+LLP2A) was “more than 40%”. The “huMSCs (GUSB+) adjacent to/retained in bone” value ([1]; three weeks after transplantation, co-injected with huMSCs) was “only seen adjacent to the bone surface; also recorded: retention of the transplanted huMSCs in bone”, the cortical bone formation [1, 6] was “increases” and the trabecular bone formation [1, 6] was “increases”. The “bone formation rates at endocortical and periosteal surfaces of the mid-femur, increase” value ([1]; three weeks, co-injected with huMSC) was 50-100%, the “cancellous bone volume, BV/TV” value ([1]; vertebral body, three weeks after single injection of huMSC with or without compound) was 13.9±2.2% and the “dose-response at the cortical bone compartment” value ([2]; 10 ng vs 250 ng/mouse) was “no dose-responses”. For the same compound, the mineral apposition rate ([2]; distal femur metaphysis) was “significant increases”, the osteoblast surface ([2]; distal femur metaphysis) was “significant increases; also recorded: increased” and the “surface-based bone formation rate” value ([2]; distal femur metaphysis) was “significant increases”. The trabecular thickness ([2]; distal femur microCT, four weeks, two dose levels, vs PBS) was “increased”, the “increase in cancellous bone mass from baseline” value ([2]; distal femur microCT, four weeks, LLP2A-Ale at higher dose level (250 ng)) was ~20% and the “bridges between adjacent trabeculae” value ([2]; mouse, in vivo) was “formed bridges between adjacent trabeculae”. The “early osteoblast maturation (P1NP levels)” value ([2]; serum) was “did not change”, the “osteoblast function (osteocalcin)” value ([2]; serum) was “increased” and the cancellous bone mass ([2]; through increasing the thickness of the trabeculae) was “increases”. For the same compound, the “proliferating cell populations (BrdU)” value ([2]; two days after i.v. injection, lumbar vertebral sections) was “increased these proliferating cell populations adjacent to bone surface; also recorded: increases”, the cancellous bone formation ([2]; young normal mice) was “increases” and the cortical bone formation ([2]; young normal mice) was “increases”. For the same compound, the “osteoblast numbers, activities and bone formation rate/bone surface (BFR/BS)” value ([3]; 5th lumbar vertebral bodies) was “increases”, the maximum stress ([3]; femur three-point bending, single IV injection of conjugate or four weeks of PTH) was “not significantly altered” and the endocortical bone formation ([3]; mid-femur, vs OVX) was “increases”. For the same compound, the cortical bone thickness ([3]; mid-femur, single IV injection of conjugate or four weeks of PTH) was “not significantly altered”.

Reference: patent publication US9119884B2, “LLP2A-bisphosphonate conjugates for osteoporosis treatment” (The Regents of the University of California, priority 2010, dated 2015)
